One assay concerns neointima formation. The settings on record: intraluminal exposure of a denuded rat carotid artery; cited from earlier work.
For a further assay, the target named is cdk4/Cyclin D (Homo sapiens, UniProt P11802). The experiment in a line: Assay for inhibition of cdk4/Cyclin D, 32P filter plate. The settings on record: for IC50: cdk4, 25 μM ATP, retinoblastoma protein substrate, read-out: CYCK4 IC50. Format: biochemical. The method, then:
Assay for Inhibition of cdk4/Cyclin D
The cdk4 enzyme assay for IC50 determination and kinetic evaluation was performed as follows: 96-well filter plates (Millipore MADVN6550) were used. The total volume was 0.1 mL containing a final concentration of buffer A (20 mM TRIS (tris[hydroxymethyl]aminomethane) (pH 7.4), 50 mM NaCl, 1 mM dithiothreitol, 10 mM MgCl2), 25 μM ATP containing 0.25 μCi [^32P]ATP, 20 ng Cdk4, 1 μg retinoblastoma protein, and the test compound at appropriate dilutions in buffer A. Buffer A alone without added test compound was employed as a control for no inhibition. Buffer A containing excess EDTA was used to determine the level of background ^32P in the absence of enzyme activity. All components except the ATP were added to the wells, and the plate was placed on a plate mixer for 2 minutes. The reaction was started by adding [^32P]ATP, and the plate was incubated at 25° C. for 15 minutes. The reaction was terminated by addition of 0.1 mL 20% trichloroacetic acid (TCA). The plate was kept at 4° C. for at least 1 hour to allow the substrate to precipitate. The wells were then washed five times with 0.2 mL 10% TCA, and ^32P incorporation was determined with a beta plate counter (Wallac Inc., Gaithersburg, Md.).

The next assay has as its target cdk1/cyclin B (Homo sapiens, UniProt P06493). The experiment in a line: Assay for inhibition of cdk1 (cdk1/cyclin B), 32P filter plate. The assay is classed as biochemical. The conditions noted are these: retinoblastoma protein substrate, read-out: CYCK1B IC50. As to the method: (§1) Assay for Inhibition of cdk1 and cdk2
(§2) Cdk1 and cdk2 enzyme assays for IC50 determinations and kinetic evaluation were performed as follows. 96-well filter plates (Millipore MADVN6550) were used. The total volume of each well in the assay was 0.1 mL in Buffer A (20 mM TRIS (pH 7.4), 50 mM NaCl, 1 mM dithiothreitol, 10 mM MgCl2), to which was added […] containing 0.25 μCi [^32P]ATP, 20 ng enzyme (cdk2/cyclin E, cdk2/cyclin A, or cdk1/cyclin B), 1 μg retinoblastoma protein, and appropriate dilutions in Buffer A of the particular test compound. Buffer A alone without added test compound was employed as a control for no inhibition. Buffer A containing excess EDTA was used to determine the level of background ^32P in the absence of enzyme activity. All components except the ATP were added to the wells, and the plate was placed on a plate mixer for 2 minutes. The reaction was initiated by addition of [^32P]ATP, and the plate was incubated at 25° C. for 15 minutes. The reaction was terminated by addition of 0.1 mL 20% TCA. The plate was kept at 4° C. for at least 1 hour to allow the substrate to precipitate. The wells were then washed five times with 0.2 mL 10% TCA, and ^32P incorporation was determined with a beta plate counter (Wallac Inc., Gaithersburg, Md.). The IC50 of the test compound was determined using the median effect method (Chou, T-C and Talalay, P. Applications of the median effect principle for the assessment of low-dose risk of carcinogens and for the quantitation of synergism and antagonism of chemotherapeutic agents. In: New Avenues in Developmental Cancer Chemotherapy (Eds. Harrap, K. T. and Connors, T. A.), pp. 37–64. Academic Press, New York, 1987).

For a further assay, the target named is cdk2/cyclin E (Homo sapiens, UniProt P24941). The experiment in a line: Assay for inhibition of cdk2 (cdk2/cyclin E), 32P filter plate. Format: biochemical. The settings on record: retinoblastoma protein substrate, read-out: CYCK2E IC50. The method, then:
as §1, §2

Another assay has as its target cdk2/cyclin A (Homo sapiens, UniProt P24941). As to the kind of experiment: Assay for inhibition of cdk2 (cdk2/cyclin A), 32P filter plate. The assay is classed as biochemical. The conditions noted are these: retinoblastoma protein substrate, read-out: CYCK2A IC50. As to the method:
as §1, §2

Assay [1] addresses T1, human FGF1(flg) receptor tyrosine kinase (Homo sapiens, UniProt P11362).
T1 construct: amplify a fragment of DNA that codes for the intracellular tyrosine kinase domain; made in house; host or cells: SF9 insect cells (baculovirus); crude cell lysate used
The experiment in a line: FGF receptor (FGFr) tyrosine kinase assay. Format: biochemical. The settings on record: FGFr enzyme lysate, Poly (4:1) glutamate-tyrosine substrate. An excerpt:
(§3) For PDGF receptor (PDGFr) and FGF receptor (FGFr) tyrosine kinase assays, full-length cDNAs for the mouse PDGF-β and human FGF1(flg) receptor tyrosine kinases were obtained from J. Escobedo and prepared as described previously (Escobedo et al., J. Biol. Chem., 1988;262:1482–1487). PCR primers were designed to amplify a fragment of DNA that codes for the intracellular tyrosine kinase domain. The fragment was inserted into a baculovirus vector, cotransfected with AcMNPV DNA, and the recombinant virus was isolated. SF9 insect cells are infected with the virus to overexpress the protein, and the cell lysate was used for the assay.
(§4) PDGFr and FGFr enzyme assays were performed in 96-well plates (100 μL/incubation/well), and conditions were optimized to measure the incorporation of ^32P from [γ^32P]ATP into a glutamate-tyrosine co-polymer substrate. Briefly, to each well was added 82.5 μL incubation buffer containing 25 mM Hepes (pH 7.0), 150 mM NaCl, 0.1% Triton X-100, 0.2 mM PMSF, 0.2 mM Na3VO4, 10 mM MnCl2, and 750 μg/mL Poly (4:1) glutamate-tyrosine followed by 2.5 μL inhibitor and 5 μL enzyme lysate (7.5 μg/μL FGFr or 6.0 μg/μL PDGFr) to initiate the reaction. Following a 10-minute incubation at 25° C., […] [γ^32P]ATP (0.4 μCi plus 50 μM ATP) was added to each well, and samples were incubated for an additional 10 minutes at 25° C. The reaction was terminated by the addition of 100 μL 30% trichloroacetic acid (TCA) containing 20 mM sodium pyrophosphate and precipitation of material onto glass fiber mats (Wallac). Filters were washed three times with 15% TCA containing 100 mM sodium pyrophosphate, and the radioactivity retained on the filters was counted in a Wallac 1250 Betaplate reader. Nonspecific activity was defined as radioactivity retained on the filters following incubation of samples with buffer alone (no enzyme). Specific enzymatic activity (enzyme plus buffer) was defined as total activity minus nonspecific activity. The concentration of a compound that inhibited specific activity by 50% (IC50) was determined based on the inhibition curve.

In assay [2] the target is T2, mouse PDGF-β receptor tyrosine kinase (Mus musculus, UniProt P05622).
T2 construct: amplify a fragment of DNA that codes for the intracellular tyrosine kinase domain; made in house; host or cells: SF9 insect cells (baculovirus); crude cell lysate used
As to the kind of experiment: PDGF receptor (PDGFr) tyrosine kinase assay. The assay is classed as biochemical. The conditions noted are these: PDGFr enzyme lysate, Poly (4:1) glutamate-tyrosine substrate.
From the text: as §3, §4

In assay [3] the test system is herpes simplex virus (HSV). The conditions noted are these: related art (Schang et al.); cited from earlier work.

Each structure is given as a SMILES string.

T2 sequence (P05622 599-961 limits assumed): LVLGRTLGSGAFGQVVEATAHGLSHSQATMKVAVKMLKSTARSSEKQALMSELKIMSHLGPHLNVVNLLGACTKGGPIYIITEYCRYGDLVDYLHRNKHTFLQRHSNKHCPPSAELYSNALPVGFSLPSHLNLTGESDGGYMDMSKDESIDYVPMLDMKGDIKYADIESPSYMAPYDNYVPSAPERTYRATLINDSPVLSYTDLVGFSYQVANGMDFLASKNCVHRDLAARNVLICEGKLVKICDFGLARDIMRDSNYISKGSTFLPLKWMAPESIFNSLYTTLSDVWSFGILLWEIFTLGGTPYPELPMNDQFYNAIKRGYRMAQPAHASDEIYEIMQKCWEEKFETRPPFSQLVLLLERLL
T1 sequence (P11362 478-767 limits assumed): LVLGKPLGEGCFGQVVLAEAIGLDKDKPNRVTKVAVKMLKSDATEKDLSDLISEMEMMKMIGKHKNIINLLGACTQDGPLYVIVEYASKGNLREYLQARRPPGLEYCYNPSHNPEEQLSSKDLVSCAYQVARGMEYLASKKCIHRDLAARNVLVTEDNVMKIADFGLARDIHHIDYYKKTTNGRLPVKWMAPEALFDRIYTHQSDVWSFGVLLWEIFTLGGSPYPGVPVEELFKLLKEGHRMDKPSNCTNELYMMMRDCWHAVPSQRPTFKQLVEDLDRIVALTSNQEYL
Sequence of cdk4/Cyclin D (P11802 whole entry, species assumed): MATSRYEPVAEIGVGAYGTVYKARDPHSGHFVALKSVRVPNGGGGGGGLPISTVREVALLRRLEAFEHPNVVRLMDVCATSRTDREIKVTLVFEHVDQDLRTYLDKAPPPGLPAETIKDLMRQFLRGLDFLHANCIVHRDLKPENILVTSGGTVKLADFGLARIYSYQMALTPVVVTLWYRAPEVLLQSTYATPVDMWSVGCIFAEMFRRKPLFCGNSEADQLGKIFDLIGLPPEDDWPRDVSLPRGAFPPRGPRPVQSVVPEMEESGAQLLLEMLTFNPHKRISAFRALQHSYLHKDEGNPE
Sequence of cdk4/Cyclin D (P24385 whole entry partner, species assumed): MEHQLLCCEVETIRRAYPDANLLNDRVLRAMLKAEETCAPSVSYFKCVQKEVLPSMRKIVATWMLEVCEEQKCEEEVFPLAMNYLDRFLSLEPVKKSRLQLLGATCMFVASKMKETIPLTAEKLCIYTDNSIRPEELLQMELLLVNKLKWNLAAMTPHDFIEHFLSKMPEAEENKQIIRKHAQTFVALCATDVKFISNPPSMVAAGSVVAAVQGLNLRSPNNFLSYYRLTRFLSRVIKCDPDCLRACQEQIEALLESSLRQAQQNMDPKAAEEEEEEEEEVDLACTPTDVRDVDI
Sequence of cdk1/cyclin B (P06493 whole entry, species assumed): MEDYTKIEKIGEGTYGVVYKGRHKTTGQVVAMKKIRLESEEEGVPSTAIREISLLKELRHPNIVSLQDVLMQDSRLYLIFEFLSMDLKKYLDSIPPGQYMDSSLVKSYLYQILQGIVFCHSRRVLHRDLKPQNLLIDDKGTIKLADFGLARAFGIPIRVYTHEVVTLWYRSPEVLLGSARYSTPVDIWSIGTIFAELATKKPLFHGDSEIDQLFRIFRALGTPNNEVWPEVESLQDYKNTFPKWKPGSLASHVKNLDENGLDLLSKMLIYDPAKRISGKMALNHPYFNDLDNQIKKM
Sequence of cdk1/cyclin B (P14635 whole entry partner, species assumed): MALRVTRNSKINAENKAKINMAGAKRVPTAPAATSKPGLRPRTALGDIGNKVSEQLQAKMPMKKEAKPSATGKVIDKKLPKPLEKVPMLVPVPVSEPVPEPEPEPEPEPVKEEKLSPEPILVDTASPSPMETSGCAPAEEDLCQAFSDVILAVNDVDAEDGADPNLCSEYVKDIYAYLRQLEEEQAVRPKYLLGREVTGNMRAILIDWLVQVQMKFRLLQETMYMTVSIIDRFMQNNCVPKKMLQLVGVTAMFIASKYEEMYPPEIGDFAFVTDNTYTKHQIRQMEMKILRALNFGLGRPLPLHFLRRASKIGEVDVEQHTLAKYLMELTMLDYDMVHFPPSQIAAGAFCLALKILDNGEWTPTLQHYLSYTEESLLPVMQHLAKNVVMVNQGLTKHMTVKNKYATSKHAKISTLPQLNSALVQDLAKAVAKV

As for `COc1ccc(CNc2nc(N(CCO)CCO)nc3c2ncn3C(C)C)cc1` [CVT-313], the “inhibition of neointima formation” value in the assay with neointima formation is given as “greater than 80%”.

For the compound `O=S1(=O)C=Cc2cnc(Nc3ccc(N4CCNCC4)cc3)nc2N1C1CCCC1` [Compound 4, (1-Cyclopentyl-2,2-dioxo-1,2-dihydro-2l^6-thia-1,6,8-triaza-naphthalen-7-yl)-(4-piperazin-1-yl-phenyl)-amine], the IC50 was found to be 5 nM on cdk4/Cyclin D; 360 nM at cdk1/cyclin B; 145 nM on cdk2/cyclin E; 106 nM at cdk2/cyclin A; 179 nM in assay [1]; 1070 nM in assay [2]. Further, the “selectivity for Cdk4 over cdk1, cdk2, FGF and PDGF” value on cdk4/Cyclin D (conclusion from Table 2) was “specifically inhibits Cdk4”.

With `CC1(C)CN(c2ccc(Nc3ncc4c(n3)N(C3CCCC3)S(=O)(=O)C=C4)cc2)CCN1` [Compound 6, (1-Cyclopentyl-2,2-dioxo-1,2-dihydro-2l^6-thia-1,6,8-triaza-naphthalen-7-yl)-[4-(3,3-dimethyl-piperazin-1-yl)-phenyl]-amine], the IC50 at cdk4/Cyclin D was 1.3 nM; on cdk1/cyclin B it was 3600 nM; at cdk2/cyclin E, 600 nM; on cdk2/cyclin A, 294 nM.

On to `CC1=Cc2cnc(Nc3ccc(N4CCNCC4)cc3)nc2N(C2CCCC2)S1(=O)=O` [Compound 10, (1-Cyclopentyl-3-methyl-2,2-dioxo-1,2-dihydro-2l^6-thia-1,6,8-triaza-naphthalen-7-yl)-(4-piperazin-1-yl-phenyl)-amine], for which the IC50 at cdk4/Cyclin D is 93 nM; at cdk1/cyclin B, 36000 nM; on cdk2/cyclin E it was 26000 nM; on cdk2/cyclin A it was 5450 nM; in assay [1], 575 nM; in assay [2], 290 nM.

Consider `CCC1=Cc2cnc(Nc3ccc(N4CCNCC4)cc3)nc2N(C2CCCC2)S1(=O)=O` [Compound 14, (1-Cyclopentyl-3-ethyl-2,2-dioxo-1,2-dihydro-2l^6-thia-1,6,8-triaza-naphthalen-7-yl)-(4-piperazin-1-yl-phenyl)-amine], for which the IC50 on cdk4/Cyclin D was 50 nM; at cdk2/cyclin E, greater than 5000 nM; at cdk2/cyclin A it was 4000 nM; in assay [1] it was 1030 nM; in assay [2], 216 nM.

As for `O=S1(=O)CCc2cnc(Nc3ccc(N4CCNCC4)cc3)nc2N1C1CCCC1` [Compound 16, (1-Cyclopentyl-2,2-dioxo-1,2,3,4-tetrahydro-2l^6-thia-1,6,8-triaza-naphthalen-7-yl)-(4-piperazin-1-yl-phenyl)-amine], the IC50 at cdk4/Cyclin D worked out at 45 nM; on cdk1/cyclin B it was 4140 nM; at cdk2/cyclin E, 930 nM; on cdk2/cyclin A it was 930 nM.

For the compound `CC[C@H](CO)Nc1nc(NCc2ccccc2)c2ncn(C(C)C)c2n1` [roscovitine], the HSV replication result in assay [3] is given as “inhibited”.

A word on the IC50: it is the concentration that gives 50% inhibition.

The record behind these values is US7026313B2, “2-thia-1,6,8-triaza-naphthalene-2,2-dioxides are kinase inhibitors” (Warner-Lambert Company, priority 2002, dated 2006).
